Converted amounts (≈) assume the structure as drawn.

Data on 9 compounds can be found in patent US4450234A, “Antibiotic C-15003 PHM and production thereof” (Takeda Chemical Industries, Ltd., priority 1979, dated 1984).

Data set [1] in a line: Neutral lipophilic character. The data set is classed as physicochemical.
The test system of a further data set is Klebsiella pneumoniae. Description: Antibacterial activity, paper disk method. The data set is classed as cell-based. As to conditions: paper disk 8 mm, 0.02 ml of 300 μg/ml solution, Trypticase-soy-agar. The method, then:
(§1) Using Trypticase-soy-agar (Baltimore Biologicals, U.S.A.) as the assay medium, the growth inhibitory concentrations of the compound against the various microorganisms named hereinbelow were determined by the paperdisk method. Thus, on plate media containing the following microorganisms, respectively, minimal inhibitory concentrations were determined using paper disks imbibed with 0.02 ml of a 300 μg/ml solution of PHM-3 or PHM-4 (disks, Toyo Seisakusho, Japan, thin-type, diam. 8 mm).
(§2) Escherichia coli, Proteus vulgaris, Proteus mirabilis, Pseudomonas aeruginosa, Staphylococcus aureus, Bacillus subtilis, Bacillus cereus, Klebsiella pneumoniae, Serratia marcessence, Mycobacterium avium.
(§3) Using Trypticase-soy-agar (Baltimore Biologicals, U.S.A.) as the test medium, the growth inhibitory activity of the compound against the organisms named below was assayed by the paper disk method. Thus, on the plate media each containing one of the undermentioned organisms, the activity of the compound was tested using paper disks (Toyo Seisakusho, Japan, thin type, diam. 8 mm) imbibed with 0.02 ml of a 300 μg/ml solution of PHM-3-acetate.
(§4) Escherichia coli, Proteus vulgaris, Proteus mirabilis, Pseudomonas aeruginosa, Staphylococcus aureus, Bacillus subtilis, Bacillus cereus, Klebsiella pneumoniae, Serratia marcescence, Mycobacterium avium.

A further data set deals with Serratia marcessence. Description: Antibacterial activity, paper disk method. The note with it: paper disk 8 mm, 0.02 ml of 300 μg/ml solution, Trypticase-soy-agar. The data set is classed as cell-based. As to the method: as §1, §2, §3, §4
The next data set relates to Pseudomonas aeruginosa. Description: Antibacterial activity, paper disk method. The data set is classed as cell-based. The note with it: paper disk 8 mm, 0.02 ml of 300 μg/ml solution, Trypticase-soy-agar. As to the method: as §1, §2, §3, §4
In another data set the test system is Proteus vulgaris. Description: Antibacterial activity, paper disk method. The data set is classed as cell-based. The note with it: paper disk 8 mm, 0.02 ml of 300 μg/ml solution, Trypticase-soy-agar. The method, then:
as §1, §2, §3, §4

Another data set has as its system Mycobacterium avium. Description: Antibacterial activity, paper disk method. As to conditions: paper disk 8 mm, 0.02 ml of 300 μg/ml solution, Trypticase-soy-agar. The data set is classed as cell-based. As to the method: as §1, §2, §3, §4
A further data set has as its system Staphylococcus aureus. Description: Antibacterial activity, paper disk method. As to conditions: paper disk 8 mm, 0.02 ml of 300 μg/ml solution, Trypticase-soy-agar. The data set is classed as cell-based. As to the method: as §1, §2, §3, §4
Another data set deals with Escherichia coli. Description: Antibacterial activity, paper disk method. The data set is classed as cell-based. The note with it: paper disk 8 mm, 0.02 ml of 300 μg/ml solution, Trypticase-soy-agar. As to the method: as §1, §2, §3, §4
The next data set has as its system Proteus mirabilis. Description: Antibacterial activity, paper disk method. The note with it: paper disk 8 mm, 0.02 ml of 300 μg/ml solution, Trypticase-soy-agar. The data set is classed as cell-based. As to the method: as §1, §2, §3, §4
In the next data set the test system is Bacillus cereus. Description: Antibacterial activity, paper disk method. The data set is classed as cell-based. As to conditions: paper disk 8 mm, 0.02 ml of 300 μg/ml solution, Trypticase-soy-agar. As to the method:
as §1, §2, §3, §4

Another data set relates to Bacillus subtilis. Description: Antibacterial activity, paper disk method. The note with it: paper disk 8 mm, 0.02 ml of 300 μg/ml solution, Trypticase-soy-agar. The data set is classed as cell-based. As to the method:
as §1, §2, §3, §4

The next data set relates to Tetrahymena pyriformis W. Description: Antiprotozoan growth inhibition, serial broth dilution method. The data set is classed as cell-based. The note with it: 44 h, 28° C., 44 to 48 hours, pH 7.0, serial broth dilution, read-out: growth inhibitory concentration. As to the method: In addition, using Tetrahymena pyriformis W strain as the test organism and the assay medium composed of 20 g proteose peptone (Difco, U.S.A.), 1 g yeast extract, 2 g glucose, 1000 ml distilled water and 10 ml 1 M phosphate buffer, pH 7.0, cultivation was carried out at 28° C. for 44 to 48 hours and the growth inhibitory concentration of the antibiotic was determined by the serial broth dilution method.
Tetrahymena pyriformis W, as the test organism, was cultivated on an assay medium [20 g of proteose-peptone (Difco, U.S.A.), 1 g of yeast extract, 2 g of glucose, 1000 ml of distilled water, 10 ml of 1 M phosphate buffer, pH 7.0] at 28° C. for 44 to 48 hours and the growth inhibitory activity of the compound against the above-mentioned strain was assayed by the serial dilution method.

In a further data set the test system is Nocardia sp. No. N-1231. Description: Antibiotic resistance of No. N-1231 strain. The data set is classed as cell-based.

Take `COc1cc2cc(c1Cl)N(C)C(=O)CC(O)C1(C)OC1C(C)C1CC(O)(NC(=O)O1)C(OC)/C=C/C=C(\C)C2` (stereo not drawn) [P-0, maytansinol]: the “neutral lipophilic / fat-soluble character” value in data set [1] is reported as “neutral lipophilic”.

Consider `COc1cc2cc(c1Cl)N(C)C(=O)CC(OC(C)=O)C1(C)OC1C(C)C1CC(O)(NC(=O)O1)C(OC)C=CC=C(C)C2` (stereo not drawn) [P-1, maytanacine], for which, in data set [1], the “neutral lipophilic / fat-soluble character” value is reported as “neutral lipophilic”.

For `CCC(=O)OC1CC(=O)N(C)c2cc(cc(OC)c2Cl)CC(C)=CC=CC(OC)C2(O)CC(OC(=O)N2)C(C)C2OC12C` (stereo not drawn) [P-2, maytansinol propionate], the “neutral lipophilic / fat-soluble character” value in [1] is on record as “neutral lipophilic”.

For the compound `COc1cc2cc(c1Cl)N(C)C(=O)CC(OC(=O)C(C)C)C1(C)OC1C(C)C1CC(O)(NC(=O)O1)C(OC)C=CC=C(COC(C)=O)C2` (stereo not drawn) [PHM-3-acetate], the “activity (growth inhibition)” value with Klebsiella pneumoniae, in the data set on Serratia marcessence, with Pseudomonas aeruginosa, with Proteus vulgaris, in the data set with Mycobacterium avium and in the data set with Staphylococcus aureus was “failed to show activity” throughout. The “activity (growth inhibition)” value with Escherichia coli, in the data set on Proteus mirabilis, in the data set with Bacillus cereus and with Bacillus subtilis was “failed to show activity” each time. Besides, the MIC in the data set with Tetrahymena pyriformis W amounted to 8 µg/mL (≈ 11.5 µM).

`COc1cc2cc(c1Cl)N(C)C(=O)CC(OC(=O)C(C)C)C1(C)OC1C(C)C1CC(O)(NC(=O)O1)C(OC)C=CC=C(CO)C2` (stereo not drawn) [PHM-3]: the “activity (growth inhibition)” value with Klebsiella pneumoniae, with Serratia marcessence, in the data set on Pseudomonas aeruginosa, in the data set with Proteus vulgaris, with Mycobacterium avium and in the data set on Staphylococcus aureus was “no activity” throughout. The “activity (growth inhibition)” value with Escherichia coli, with Proteus mirabilis, in the data set on Bacillus cereus and in the data set on Bacillus subtilis was “no activity” in each case. Further, in the data set on Tetrahymena pyriformis W, the MIC stood at 40 µg/mL (≈ 61.4 µM).

Regarding `COc1cc2cc(c1Cl)N(C)C(=O)CC(OC(=O)CC(C)C)C1(C)OC1C(C)C1CC(O)(NC(=O)O1)C(OC)C=CC=C(CO)C2` (stereo not drawn) [PHM-4], the “activity (growth inhibition)” value in the data set with Klebsiella pneumoniae, with Serratia marcessence, in the data set on Pseudomonas aeruginosa, in the data set on Proteus vulgaris, in the data set on Mycobacterium avium and in the data set on Staphylococcus aureus was “no activity” in each case. The “activity (growth inhibition)” value in the data set on Escherichia coli, with Proteus mirabilis, with Bacillus cereus and in the data set on Bacillus subtilis was “no activity” each time. Further, the MIC in the data set with Tetrahymena pyriformis W was determined as 40 µg/mL (≈ 60.1 µM).

Take `CCC[C@@H]1C[C@@H](C(=O)N[C@@H]([C@H]2O[C@H](SC)[C@H](O)[C@@H](O)[C@H]2O)[C@@H](C)O)N(C)C1` [lincomycin]: in the data set with Nocardia sp. No. N-1231, the “resistance of No. N-1231 strain” value was “resistant”.

Take `CC1(C)S[C@@H]2[C@H](NC(=O)Cc3ccccc3)C(=O)N2[C@H]1C(=O)O` [penicillin G]: the “resistance of No. N-1231 strain” value with Nocardia sp. No. N-1231 is “resistant”.

`[H]/N=C(/N)N[C@H]1[C@H](O)[C@@H](O)[C@H](O[C@@H]2O[C@@H](C)[C@](O)(C=O)[C@H]2O[C@@H]2O[C@@H](CO)[C@H](O)[C@@H](O)[C@@H]2NC)[C@@H](N/C(N)=N\[H])[C@@H]1O` [streptomycin]: the “resistance of No. N-1231 strain” value in the data set with Nocardia sp. No. N-1231 is “resistant”.
